Data as given in patent US11098040B2, “Compounds and methods of use” (Ferro Therapeutics, Inc., priority 2018, dated 2021).
pIC50: −log10 of the molar value. Like-named read-outs stand apart in the source and are kept apart here.

Experiments:
KP4 = assay: Cell viability assay (CellTiter Glo), pancreatic ductal adenocarcinoma KP4; format: cell-based, human; conditions: Homo sapiens; for IC50: KP-4, 96 h, pancreatic cancer cell line KP4, 96 hours, CellTiter Glo, read-out: IC50 μM KP4; for pIC50: KP-4, Cell Line KP4, read-out: IC50
Procedure: (§1) Cell viability assay was performed to assess the potency of the compounds in human cancer cell lines KP4 (pancreatic ductal adenocarcinoma), MiaPaCa-2 (pancreatic carcinoma), AsPC-1 (pancreatic adenocarcinoma, ascites), 143B (osteosarcoma), and SJSA-1 (osteosarcoma). Selected compounds were also assayed in a human breast epithelial cell line MCF-10A, a nontumorigenic cell line as a control to assess differential activity. Cells at a density of 500-5,000 cells/well were seeded in 96-well plates and incubated at 37° C. overnight. A series of 9 different concentrations of compound stocks (500×) were created by 3-fold serial dilution in DMSO. These compounds were further diluted in culture media and then added to cells so that the final DMSO concentration was equal to 0.25% or less. After 96 hours of incubation, 50 μL of CellTiter Glo reagent (Promega) was added to each well and luminescence was measured after 10 minutes using EnVision (PerkinElmer). Compounds titrated from top concentration of up to 30 μM. The select compounds were tested initially from 30 μM as the top concentration in duplicates (range of 4.6 nM-30 μM). […] Luminescence from cells treated with DMSO alone was set as Max and % of inhibition was calculated as follows: Inhibition %=(Max-Sample value)/Max*100. Data was analyzed using XL-fit software (ID Business Solutions Ltd.). IC50, relative IC50, or % of top inhibition was calculated.
as §1, with “in” for “in human”, “line” for “lines”, “adenocarcinoma).” for “adenocarcinoma), MiaPaCa-2 (pancreatic carcinoma), AsPC-1 (pancreatic adenocarcinoma, ascites), 143B (osteosarcoma), and SJSA-1 (osteosarcoma). Selected compounds were also assayed in a human breast epithelial cell line MCF-10A, a nontumorigenic cell line as a control to assess differential activity.”, “1,000-10,000” for “500-5,000”, “All” for “Compounds titrated from top concentration of up to 30 μM. The select”
(§2) The results of the assay on stability in blood and IC50 values for pancreatic cancer cell line KP4 are given below in Table 24.

[1] = Whole blood stability, mouse; format: in vitro ADME
From the text: as §2

[2] = Whole blood stability, human; format: in vitro ADME
From the text: as §2

SMILES | IC50 (KP4) [µM] | Whole Blood Stability % Remaining at 37° C. Mouse ([1]; 0 min) [%] | Whole Blood Stability % Remaining at 37° C. Mouse ([1]; 30 min) [%] | Whole Blood Stability % Remaining at 37° C. Mouse ([1]; 60 min) [%] | Whole Blood Stability % Remaining at 37° C. Human ([2]; 0 min) [%] | Whole Blood Stability % Remaining at 37° C. Human ([2]; 30 min) [%] | Whole Blood Stability % Remaining at 37° C. Human ([2]; 60 min) [%] | pIC50 (KP4)
COC(=O)c1ccc([C@H]2c3[nH]c4ccccc4c3C[C@H](C(=O)OC(C)(C)C)N2C(=O)CCl)cc1 [Compound 2] | 0.01 to 0.1 | 100.0 | 0.1 | 0.1 | 100.0 | 58.5 | 39.4 | 
COC(=O)c1ccc([C@@H]2c3[nH]c4ccc(F)cc4c3C[C@H](C(=O)OC)N2C(=O)CCl)cc1 [Compound 92] | 0.1 to 0.5 | 100.0 | 0.0 | 0.0 | 100.0 | 40.2 | 21.0 | 
C[C@H]1Cc2c([nH]c3ccccc23)[C@H](c2ccc(C3CCCC3)cc2)N1C(=O)CCl [Compound 109] | < 0.01 | 100.0 | 79.2 | 87.7 | 100.0 | 96.1 | 68.1 | 
COC(=O)c1ccc([C@H]2c3[nH]c4ccc(OC)cc4c3C[C@H](C)N2C(=O)CCl)cc1 [Compound 113] | < 0.01 | 100.0 | 89.5 | 2.4 | 100.0 | 85.1 | 92.7 | 
COC(=O)[C@H]1Cc2c([nH]c3ccccc23)[C@H](c2ccc(NCC3CC3)cc2)N1C(=O)CCl [Compound 83] | < 0.01 | 100.0 | 66.1 | 30.0 | 100.0 | 78.5 | 52.9 | 
CN(C)C(=O)[C@H]1Cc2c([nH]c3ccccc23)[C@@H](c2ccc(C(=O)OC(C)(C)C)cc2)N1C(=O)CCl [Compound 21a] | 0.1 to 0.5 |  |  |  |  |  |  | 
CC(C)OC(=O)[C@H]1Cc2c([nH]c3ccccc23)[C@H](c2ccc(C(=O)OC(C)(C)C)cc2)N1C(=O)CCl [Compound 20] | < 0.01 | 100.0 | 39.9 | 19.1 | 100.0 | 50.7 | 41.6 | 
COC(=O)c1ccc([C@H]2c3[nH]c4ccc(Br)cc4c3C[C@H](C(=O)OC)N2C(=O)CCl)cc1 [Compound 88] | < 0.01 | 100.0 | 0.0 | 0.0 | 100.0 | 56.4 | 27.0 | 
COC(=O)[C@H]1Cc2c([nH]c3ccccc23)[C@H](c2ccc(C(=O)OC(C)(C)C)cc2)N1C(=O)CCl [Compound 1] | < 0.01 | 100.0 | 59.6 | 46.6 | 100.0 | 60.5 | 43.0 | 
COC(=O)c1ccc([C@H]2c3[nH]c4ccc(Cl)cc4c3C[C@H](C(=O)OC)N2C(=O)CCl)cc1 [Compound 93] | 0.1 to 0.5 | 100.0 | 0.0 | 0.0 | 100.0 | 66.3 | 44.9 | 
[2H]C([2H])(Cl)C(=O)N1[C@@H](c2ccc(C(=O)OC)cc2)c2[nH]c3ccccc3c2C[C@@H]1C(=O)OC [Compound 90] | < 0.01 |  |  |  |  |  |  | 
CN(C)C(=O)[C@H]1Cc2c([nH]c3ccccc23)[C@H](c2ccc(C(=O)OC(C)(C)C)cc2)N1C(=O)CCl [Compound 21] | 0.01 to 0.1 | 100.0 | 14.0 | 3.2 | 100.0 | 49.7 | 24.3 | 
CC(C)(C)OC(=O)c1ccc([C@@H]2c3[nH]c4ccccc4c3C[C@H](CO)N2C(=O)CCl)cc1 [Example 64a] | > 1 | 100.0 | 8.3 | 3.2 | 100.0 | 38.0 | 15.5 | 
COC(=O)[C@H]1Cc2c([nH]c3ccccc23)[C@H](c2ccc(S(=O)(=O)N[C@]34C[C@H]5C[C@H](C[C@H](C5)C3)C4)cc2)N1C(=O)CCl [Compound 24] | < 0.01 | 100.0 | 62.0 | 37.0 | 100.0 | 61.7 | 50.2 | 
COC(=O)[C@H]1Cc2c([nH]c3ccccc23)[C@H](c2ccc(C(=O)NCCNC(=O)OC(C)(C)C)cc2)N1C(=O)CCl [Compound 16] | < 0.01 | 100.0 | 84.1 | 63.3 | 100.0 | 54.3 | 36.9 | 
COC(=O)c1ccc([C@H]2c3c(c4ccccc4n3C)C[C@H](C(=O)OC)N2C(=O)CCl)cc1 [Compound 72] | 0.01 to 0.1 | 100.0 | 0.0 | 0.2 | 100.0 | 28.0 | 7.0 | 
COC(=O)[C@H]1Cc2c([nH]c3ccccc23)[C@H](c2ccc(S(=O)(=O)N[C@]34C[C@H]5C[C@H](C[C@H](C5)C3)C4)cc2)N1C(=O)/C=C/CCl [Compound 30] | 0.5 to 1 | 100.0 | 85.3 | 75.9 | 100.0 | 62.1 | 38.1 | 
C[C@H]1Cc2c([nH]c3ccccc23)[C@H](c2ccc([Si](C)(C)C)cc2)N1C(=O)CCl [Compound 106] | < 0.01 |  |  |  |  |  |  | 
C[C@H]1Cc2c([nH]c3ccccc23)[C@@H](c2ccc(N3CCN(C)CC3)cc2)N1C(=O)OCl [Compound 105] | 0.5 to 1 |  |  |  |  |  |  | 
COC(=O)c1ccc([C@H]2c3[nH]c4ccc(OC)cc4c3C[C@H](C(=O)OC)N2C(=O)CCl)cc1 [Compound 277] |  |  |  |  |  |  |  | 7.44
[2H]C([2H])(Cl)C(=O)N1[C@@H](c2ccc(S(=O)(=O)NC34CC5CC(CC(C5)C3)C4)cc2)c2[nH]c3ccccc3c2C[C@@H]1C(=O)OC [Compound 251] |  |  |  |  |  |  |  | 8.19
C[C@H]1Cc2c([nH]c3ccccc23)[C@@H](c2ccc([Si](C)(C)C)cc2)N1C(=O)CCl [Compound 107] | > 1 |  |  |  |  |  |  | 
C[C@H]1Cc2c([nH]c3ccccc23)[C@H](c2ccc(C3CC3)cc2)N1C(=O)CCl [Compound 108] | < 0.01 |  |  |  |  |  |  | 
CN(C)C(=O)[C@H]1Cc2c([nH]c3ccccc23)[C@H](c2ccncc2)N1C(=O)CCl [Compound 50] | 0.1 to 0.5 |  |  |  |  |  |  | 
